Source: paper PMC10191356, “Target-agnostic drug prediction integrated with medical record analysis uncovers differential associations of statins with increased survival in COVID-19 patients” (PLOS Computational Biology, 2023)
pIC50: −log10 of the molar value.

Legend:
COVID-19 patients = experiment: Retrospective electronic health record analysis of mortality (Cerner Real World Data COVID-19), propensity score matched; assay type: in vivo, human; details: for Mortality, N (%): cohort before propensity score matching, moderate-intensity statin dose; for Mortality rate, treated patients / No. died/No. treated, treated patients: statin at moderate dose, COVID-19 patients; for reduction in the RR: treated vs matched untreated controls
Protocol: Data from the Cerner Real World Data COVID-19 deidentified EHR database containing records of 490,373 patients with a diagnosis of COVID-19 or COVID-19 exposure across 87 health care centers were analyzed. The following statins were included: atorvastatin, fluvastatin, lovastatin, pitavastatin, pravastatin, rosuvastatin, and simvastatin. Primary outcome was death after the onset of COVID-19. Inclusion criteria, considered comorbidities, and statistical analysis are detailed in the Methods in S1 Text.
Encounters include laboratory and pharmacy information (e.g., medication orders, dispensing), which are date and time stamped. Only patients with COVID-19 diagnosis confirmed by a laboratory test for SARS-CoV-2 (nucleic acid amplification tests and immunoassays) and/or by International Statistical Classification of Diseases and Related Health Problems, Tenth Revision (ICD-10) code U07.1 (for COVID-19 confirmed by laboratory testing),^1 with known demographic characteristics (age, sex, and race and ethnicity), and who were 18 years or older from January to September 2020 were included in our study (n = 90,834). Patients with COVID-19, with a statin medication dose consistent with moderate-intensity therapy,^2 and with a medication order status of active or completed and without a designation of as needed (ie, medication taken only when needed) at least once within a period of 10 days before and 7 days after their first recorded COVID-19 diagnosis were compared with patients with COVID-19 and no statin orders.
Considered comorbidities, identified by using International Classification of Diseases, Ninth Revision, Clinical Modification (ICD-9-CM), and International Statistical Classification of Diseases, Tenth Revision, Clinical Modification (ICD-10-CM), diagnosis codes, included hypertension (I10-I16 and 401.X-405.X), diabetes (O24, E11, E10, E13, and 250.X), chronic obstructive pulmonary disease (J44, 491.2, 493.2, and 496.X), obesity (E66.0, E66.1, E66.2, E66.8, E66.9, 278.00, 278.01, 278.03, Z68.3, Z68.4, V85.3, and V85.4), heart conditions (I20.X, I21.X, I22.X, I23.X, I24.X, I25.X, I42.X, I50.X, 410.X, 411.X, 412.X, 413.X, 414.X, 428.X, and 425.X), cerebrovascular disease (I6X.X, G45.X, G46.X, and 43X.X), cancer (C00-C96, 14X.X, 15X.X, 16X.X, 17X.X, 18X.X, 19X.X, and 20X.X), and chronic kidney disease (N18.X and 585.X). Prescription indications, identified by using ICD-9-CM and ICD-10-CM codes, included high cholesterol/hyperlipidemia (E78.0, E78.1, E78.2, E78.3, E78.4, E78.5, 272, 277). Body mass index (calculated as weight in kilograms divided by height in meters squared) values were identified by Logical Observation Identifiers Names and Codes 39156-5 and 89270-3. Body mass index values of at least 30 were used to confirm the diagnosis of obesity by ICD-9-CM or ICD-10-CM code. The mean dose prescribed for statins-treated patients was calculated for each statin. […] For patients receiving pravastatin, the mean (SD) dose was 48.25 (16.21) mg/d.
The R Matchit package, version 3.0.2 (R Program for Statistical Computing) was used to perform propensity score matching with a nearest-neighbor method to match patients treated with a statin with control patients (1:1 ratio), atorvastatin-treated patients with control patients (1:1 ratio), lovastatin-treated patients with control patients (1:10 ratio), pravastatin-treated patients with control patients (1:10 ratio), rosuvastatin-treated patients with control patients (1:10 ratio), and simvastatin-treated patients with control patients (1:5 ratio), with varying ratios for the different statins to have sufficient power for the comparisons and increase precision. […]

SARS-CoV-2 (WA-1 strain) = experiment: SARS-CoV-2 WT infection of Vero6 cells (CellTiter-Glo); assay type: cell-based; details: MOI 0.01, 3 days, mean of two independent experiments; for pIC50: Severe acute respiratory syndrome coronavirus 2, 72 h, relative IC50, WT virus; for Max Inhibition (%): WT virus
SARS-CoV-2 GFP = experiment: microbe, parasite or virus in culture; assay type: cell-based; details: for Max Inhibition (%) / pIC50: mean of two independent experiments; for pIC50: Severe acute respiratory syndrome coronavirus 2, 48 h, relative IC50
Vero E6 (Vero6) cells = details: uninfected Vero6 cells; mean of two independent experiments
in vitro = details: African green monkey
[1] = cited from earlier work
[2] = cited from earlier work; remark: listed apart in the source
[3] = cited from earlier work; remark: listed apart in the source
SARS-CoV-2 [4] = tested on: SARS-CoV-2; design: method as in earlier work; details: VeroE6 cells; cited from earlier work
HCoV-OC43 = HCoV-OC43 infection of HUVECs, viral load; assay type: cell-based, human coronavirus OC43; details: HUVEC cells, 1 or 5 μM
Protocol: (§1) To measure the impact of selected drugs on HCoV-OC43 infection, 96-well plates seeded with human umbilical vein endothelial cells (HUVECs) were infected with HCoV-OC43 and treated with drugs (Methods in S1 Text). Viral load, Hoechst fluorescence, and IP-10 measurements were measured and normalized to vehicle control samples for each assay. Each group was compared to vehicle controls using the Brown-Forsythe and Welch ANOVA tests and corrected for multiple comparisons using a Dunnett T3 test.
(§2) To measure the impact of selected drugs on HCoV-OC43 infection, 96-well plates seeded with Human Umbilical Vein Endothelial Cells (HUVEC) were infected with HCoV-OC43 and treated with drugs. Uninfected and vehicle treated cells (0.1% DMSO) are included as controls. HUVEC plates were pre-dosed with drugs overnight at 34°C at indicated concentrations (100 µl/well). The following day, HCoV-OC43 was added to the wells (100 µl/well) at an MOI of 0.2 and incubated for 3 h at 34°C. […] After five PBS washes, Hoechst fluorescence was read at 355 nm excitation and 450 nm emission using a Synergy H1 Spectrophotometer. Subsequently, viral load was analyzed using the ImmPACT DAB Peroxidase (HRP) Substrate kit (Vector Labs) according to the manufacturer’s instructions, and DAB absorbance was read at 465 nm.

IP-10 = IP-10 production in OC43-infected HUVECs; assay type: cell-based, human; details: 1 or 5 μM
Protocol: as §1, §2

SARS-CoV-2 [5] = experiment: Preliminary in vivo study in SARS-CoV-2-infected hamsters
SARS-CoV-2 [6] = experiment: Preliminary in vivo study in SARS-CoV-2-infected mice

Structure (SMILES) | Mortality, N (%) (COVID-19 patients) | Mortality rate, treated patients (COVID-19 patients) [%] | No. died/No. treated, treated patients (COVID-19 patients) | reduction in the RR (COVID-19 patients) [%] | Max Inhibition (%) (SARS-CoV-2 GFP) | Max Toxicity (%) (Vero E6 (Vero6) cells) | CC50 (in vitro) [µM] | Solubility [1] | Active metabolites [2] | Bioavailability (%) [2] [%] | Elimination half-life [2] [h] | Metabolism [2] | Protein binding (%) [3] [%] | Clearance [2] | also measured
CC(C)c1c(C(=O)Nc2ccccc2)c(-c2ccccc2)c(-c2ccc(F)cc2)n1CC[C@@H](O)C[C@@H](O)CC(=O)O [atorvastatin] | 431 (16.1) % | 16.1 | 431/2676 | 14 | – | – | – | – | – | – | – | – | – | – | pIC50 (SARS-CoV-2 (WA-1 strain)): 5.72; Max Inhibition (%) (SARS-CoV-2 (WA-1 strain)): 24.4%
CC(C)n1c(/C=C/C(O)CC(O)CC(=O)O)c(-c2ccc(F)cc2)c2ccccc21 (centres unmarked) [fluvastatin] | – | – | – | – | 19 | 80.4 | 10.6 | Lipophilic | No | 19 to 29 | 0.5 to 2.3 | CYP2C9 | >99 | – | –
CC[C@H](C)C(=O)O[C@H]1C[C@@H](C)C=C2C=C[C@H](C)[C@H](CC[C@@H]3C[C@@H](O)CC(=O)O3)[C@H]21 [lovastatin] | 15 (21.4) % | 21.4 | 15/70 | – | 55.8 | 74.2 | 16.9 | Lipophilic | Yes | – | 2.9 | CYP3A4 | >95 | Hepatic | pIC50 (SARS-CoV-2 GFP): 5.11
O=C(O)C[C@H](O)C[C@H](O)/C=C/c1c(C2CC2)nc2ccccc2c1-c1ccc(F)cc1 [pitavastatin] | 4 (30.8) % | – | – | – | – | 83.6 | 0.3 | Lipophilic | Yes | 51 | 12 | Non-CYP450 Limited CYP2C9/19 | 99 | Hepatic | pIC50 (SARS-CoV-2 (WA-1 strain)): 5.80; Max Inhibition (%) (SARS-CoV-2 (WA-1 strain)): 19.1%
CC[C@H](C)C(=O)O[C@H]1C[C@H](O)C=C2C=C[C@H](C)[C@H](CC[C@@H](O)C[C@@H](O)CC(=O)O)[C@H]21 [pravastatin] | 71 (18.5) % | 18.5 | 71/383 | – | 21.7 | 4 | – | Hydrophilic | No | 18 | 1.3 to 2.8 | Non-CYP450 | 43 to 55 | Hepatic and renal | Relative risk of death (95% CI) (COVID-19 patients; treated vs propensity score matched untreated controls, iteration with the least significant result): 0.78 (0.61–1.00)
CC(C)c1nc(N(C)S(C)(=O)=O)nc(-c2ccc(F)cc2)c1/C=C/[C@@H](O)C[C@@H](O)CC(=O)O [rosuvastatin] | 53 (13.1) % | 13.1 | 53/404 | 41 | – | – | – | Hydrophilic | No | – | – | Non-CYP450 Limited CYP2C9/8 | – | Hepatic and renal | effects on SARS-CoV-2 replication (SARS-CoV-2 [4]): inhibitory effects
CCC(C)(C)C(=O)O[C@H]1C[C@@H](C)C=C2C=C[C@H](C)[C@H](CC[C@@H](O)C[C@@H](O)CC(=O)O)[C@H]21 [simvastatin hydroxy acid] | – | – | – | – | – | – | – | – | – | – | – | – | – | – | inhibition of SARS-CoV-2 infection relative to pro-drug form of simvastatin (SARS-CoV-2 GFP): much weaker inhibition
CCC(C)(C)C(=O)O[C@H]1C[C@@H](C)C=C2C=C[C@H](C)[C@H](CC[C@@H]3C[C@@H](O)CC(=O)O3)[C@H]21 [simvastatin] | 153 (19.5) % | 19.5 | 153/784 | 17 | 93.7 | 78.5 | 6.5 | – | – | – | 2 to 3 | – | 94 to 98 | Hepatic | pIC50 (SARS-CoV-2 GFP): 6.10; OC43 infection (viral load) (HCoV-OC43): inhibits; cytokine (IP-10) production (IP-10): potently reduced; effect on infection and host response (SARS-CoV-2 [5]; SARS-CoV-2-infected hamsters, very preliminary): no effect; plasma levels (SARS-CoV-2 [5]; hamsters, compared with in vitro IC50): greater than the IC50; effect on infection and host response (SARS-CoV-2 [6]; SARS-CoV-2-infected mice, very preliminary): no effect; plasma levels (SARS-CoV-2 [6]; mice, compared with in vitro IC50): greater than the IC50
